Patent US8871492B2, “Anti-dementia substance from Hericium erinaceum and method of extraction” (priority 2008, dated 2014)
Values joined by “and” are separate entries in the source; they are usually repeats but may differ in a detail not shown here. Identical values can stand only once.

System: Aβ1-40-induced AD rats
Experiment: Morris Water Maze Test on Aβ1-40-induced AD rats
Format: in vivo, Sprague-Dawley male rats
Details: for Arrival Time of Platform: Donepezil 1 mg/kg by stomach tube once per day
Procedure: The control group was injected with 5 μL of saline. […] From the fourth week after the administration, learning and memory-related behavior was assessed using the Morris Water Maze Test on ten rats arbitrarily-chosen from each group once a day for one week (from day 1 to day 6 the time to arrive at the platform is measured, and on day 7 the platform is removed and the frequency to cross (pass by) the platform location is counted). After completing the behavioral test, the rats were sacrificed. The cerebral tissues separated from half of the rats of each group were used for pathological examination, and the olfactory bulb, hippocampus, locus ceruleus, and cerebral cortex from another half were used to determine the NGF content with enzyme-linked immunosorbent assay (ELISA).

COc1cc2c(cc1OC)C(=O)C(CC1CCN(Cc3ccccc3)CC1)C2 (centres unmarked) [Donepezil]
Arrival Time of Platform (Day 1, n = 10): 77.03 ± 29.92 s
Arrival Time of Platform (Day 2, n = 10): 39.10 ± 26.36 s
Arrival Time of Platform (Day 3, n = 10): 34.98 ± 23.42 s
Arrival Time of Platform (Day 4, n = 10): 31.10 ± 23.26 s
Arrival Time of Platform (Day 5, n = 10): 30.00 ± 21.11 s
Arrival Time of Platform (Day 6, n = 10): 28.43 ± 23.45 s
Frequencies of crossing platform location within two minutes (day 7, individual rats No. 1-10, Donepezil 1 mg/kg): 14 and 11 and 22 and 19 and 10 (2×) and 13 and 8 and 6 and 7
Frequencies of crossing platform location within two minutes, Mean ± SD (day 7, n = 10, Donepezil 1 mg/kg): 12.00 ± 5.16
